In brackets after ≈: the same amount, converted by molar mass.
Columns and labels:
MCF-7 cancer cell line = test: Cytotoxic activity (MTT assay); type: cell-based
Experimental: (§1) The HPLC was performed in the Institute for Plant Biology, TU Braunschweig, using a Young Lin quaternary pump, vacuum degasser, column oven (40 °C), diode array detector (YL9160 PDA), and a Midas Spark Holland autosampler. UV spectra (λ max) were measured in the central laboratory of the Faculty of Pharmaceutical Science at Mansoura University using spectroscopic methanol with an ultraviolet-visible spectrophotometer (Shimadzu 1601 PC, version TCC-240A, Kyoto, Japan). The NMR unit of Mansoura University’s Faculty of Pharmacy obtained nuclear magnetic resonance spectra (^1H-NMR, ^13C-NMR, DEPT-Q, APT, HSQC, and HMBC) using a Bruker DRX 600 NMR spectrometer (600 and 150 MHz for ^1H and ^13C-NMR, respectively) and with the Bruker Corporation Avance III 400 spectrometer, which measures ^1H and ^13C-NMR at 400 and 100 MHz, respectively. The types of solvents that are used are CDCl3, CD3OD, and DMSO-d6. For normal phase chromatography, silica gel G 60–230 mesh (Merck, Darmstadt, Germany) was packed using a wet or dry method in the specified solvent. The purchase of Normal Human lung fibroblast (WI-38), hepatic cancer cell lines (HePG-2), and mammary gland (MCF-7) cell lines from ATCC was made possible by the Holding firm for biological goods and vaccines (VACSERA), which is based in Cairo, Egypt.
(§2) Using the MTT test, the inhibitory effects of substances on cell growth were ascertained using the cell lines compared to normal lung fibroblast cells (WI-38). The selectivity index was calculated via the Selectivity index (SI) equation: SI equals IC50 normal/IC50 cancer.

HepG-2 cancer cell line = test: Cytotoxic activity (MTT assay); type: cell-based
Experimental: as §1, §2

[1] = test system: carrageenan-induced paw oedema; test: Carrageenan-induced paw oedema; type: in vivo; conditions: rat
Experimental: Adult albino rats 180-220 g of both sexes used in the investigation were acquired from the Mansoura University Faculty of Pharmacy's Animal House. Standard laboratory diet and water were provided, and they were housed in cages maintained at a constant temperature of 22 ± 2 °C. The Animal Care and Use Committee (MU-ACUC) of Mansoura University, Egypt, has approved all procedures involving animals with code number: […] Throughout the experiment, medications and extracts were given orally in doses of 1 mL/100 g of the rat's body weight after being solubilized in carboxymethyl cellulose (CMC) in order to create a suspension formula. In this test, rats were divided into six groups, with each group containing 5 animals. Group-1: […] Group-2: Positive control (carrageenan-induced oedema, Sigma (St. Louis, MO, USA)) without any treatment. […] Group-4: […] extract of Lactuca sativa was administered at a 2 g/kg dose. Group-5: Compound (1) is administered at a dose of 20 mg/kg. Group-6: Compound (1) at a dose of 40 mg/kg. Group-7: Combination of standard and compound (1) at doses of (10 + 20) mg/kg, respectively. […] Using a digital vernier calliper, the swelling of the paw that had been injected with carrageenan was measured prior to injection as well as 1, 2, 3, 4, and 5 h following the treatment's induction. The percentage inhibition of oedema in the test animals treated with the extract compared to the carrageenan control group was used to calculate the anti-inflammatory activity. The formula […] was used to calculate the percentage inhibition of inflammation, where “dt” represents the difference in paw volume in the drug-treated group and “dc” represents the difference in paw volume relative to the control group. Moreover, “I” represents the suppression of inflammation.

dermal inflammation = test: Histopathological assessment of paw skin tissue (carrageenan model); type: in vivo, rat; conditions: 5 h after carrageenan
Source text: Five hours following the carrageenan injection, tissue specimen samples from the paw skin tissue of every group under study were removed for histological examination. Prior to being submerged in paraffin blocks, they were fixed in a 10% formalin solution and stained with hematoxylin-eosin. Using a microtome, paraffin sections with a thickness of 5 µm were cut, and hematoxylin and eosin were frequently applied to the sections. Microscopically, these tissue slices were inspected. Consequently, the sections were examined under a light microscope; on the other hand, photos taken with a digital camera (Canon Power-shot D10) recorded the progression of paw oedema.

[2] = test system: SARS-CoV-2 main protease Mpro or 3CLpro; conditions: cited from earlier work
GPx = GPx activity in rat paw tissue homogenate (carrageenan model); type: in vivo; conditions: for GPx (U/gm Tissue): paw tissue 5 h after carrageenan
Experimental: (§3) The levels of inflammatory mediators (IL-1β, TNF-α, and PGE2) in rat paw tissue homogenate were measured using the following Kits: Rat TNF-α (Tumor Necrosis Factor Alpha) ELISA Kit from Elabscience® Company, Houston, TX, USA, Interleukin 1 Beta (IL-1b) Organism Species: Rattus norvegicus (Rat) from Cloud Clone Crop Company and Rat PGE2 (Prostaglandin E2) ELISA Kit from Fine test® company Hubei, China. In addition, oxidative stress parameters in rat paw tissue homogenate were measured using superoxide dismutase, glutathione peroxidase, and catalase Kits from the Biodiagnostic company, Birmingham, UK.
(§4) Rats were slaughtered, and their paw tissues were gathered and weighed five hours after the carrageenan was administered. The tissues underwent processing after being fixed in 10% formalin. Rat paw tissue was homogenized, and its oxidative stress indices (SOD, CAT, and GPx) as well as the levels of inflammatory mediators (IL-1β, TNF-α, and PGE2) were measured.

IL-1β = IL-1β in rat paw tissue homogenate (carrageenan model); type: in vivo; conditions: doses of 20 and 40 mg/kg; compared to the vehicle control group
Experimental: as §3, §4

SOD = SOD activity in rat paw tissue homogenate (carrageenan model); type: in vivo; conditions: for SOD (U/gm Tissue): paw tissue 5 h after carrageenan
Experimental: as §3, §4

[3] = test system: IL-6 production in TNF-a-stimulated MG-63 cells; conditions: cited from earlier work
[4] = IC50 normal (WI-38)/IC50 cancer
[5] = 40 mg/kg, compared to the control group

SMILES: NC(CO)C(O)c1ccc2c(c1)OCO2 (centres unmarked) [Compound 1, 1,3-propanediol-2-amino-1-(3′,4′-methylenedioxyphenyl)]
- IC50 (MCF-7 cancer cell line; Homo sapiens, MCF7, MTT, read-out: In Vitro Cytotoxicity IC50 (µg/mL) MCF-7): 86.8 ± 3.9 µg/mL (≈ 411 µM)
- Selectivity Index MCF-7 (MCF-7 cancer cell line; [4]): 0.71
- IC50 (HepG-2 cancer cell line; Homo sapiens, HepG2, MTT, read-out: In Vitro Cytotoxicity IC50 (µg/mL) HepG-2): 82.8 ± 4.1 µg/mL (≈ 392 µM)
- Selectivity Index HepG2 (HepG-2 cancer cell line; [4]): 0.75
- % Inhibition (%I) of paw oedema ([1]; 1 h, dose 20 mg/kg oral): 10.25%
- Increase in Paw Oedema ([1]; 1 h, dose 20 mg/kg oral): 1.05 ± 0.20 mL
- % Inhibition (%I) of paw oedema ([1]; 1 h, dose 40 mg/kg oral): 16.32%
- Increase in Paw Oedema ([1]; 1 h, dose 40 mg/kg oral): 0.77 ± 0.28 mL
- % Inhibition (%I) of paw oedema ([1]; 2 h, dose 20 mg/kg oral): 23.51%
- Increase in Paw Oedema ([1]; 2 h, dose 20 mg/kg oral): 1.81 ± 0.44 mL
- % Inhibition (%I) of paw oedema ([1]; 2 h, dose 40 mg/kg oral): 27.07%
- Increase in Paw Oedema ([1]; 2 h, dose 40 mg/kg oral): 1.59 ± 0.22 mL
- % Inhibition (%I) of paw oedema ([1]; 3 h, dose 20 mg/kg oral): 23.77%
- Increase in Paw Oedema ([1]; 3 h, dose 20 mg/kg oral): 2.26 ± 0.28 mL
- % Inhibition (%I) of paw oedema ([1]; 3 h, dose 40 mg/kg oral): 26.1%
- Increase in Paw Oedema ([1]; 3 h, dose 40 mg/kg oral): 2.11 ± 0.29 mL
- % Inhibition (%I) of paw oedema ([1]; 4 h, dose 20 mg/kg oral): 45.36%
- Increase in Paw Oedema ([1]; 4 h, dose 20 mg/kg oral): 2.18 ± 0.74 mL
- % Inhibition (%I) of paw oedema ([1]; 4 h, dose 40 mg/kg oral): 55.39%
- Increase in Paw Oedema ([1]; 4 h, dose 40 mg/kg oral): 1.78 ± 0.45 mL
- % Inhibition (%I) of paw oedema ([1]; 5 h, dose 20 mg/kg oral): 57.63%
- Increase in Paw Oedema ([1]; 5 h, dose 20 mg/kg oral): 1.75 ± 0.46 mL
- % Inhibition (%I) of paw oedema ([1]; 5 h, dose 40 mg/kg oral): 63.92%
- Increase in Paw Oedema ([1]; 5 h, dose 40 mg/kg oral): 1.49 ± 0.49 mL
- Histopathology of paw skin (H&E) (dermal inflammation; Group 6, 40 mg/kg): substantial reduction in dermal inflammation
- Histopathology of paw skin (H&E) (dermal inflammation; oral 20 mg/kg): moderate decrease in both inflammation and leukocyte infiltration
- inhibitory activity against SARS-CoV-2 main protease [2]: moderate inhibitory activities
- GPx activity restored (GPx; [5]): 73.17%
- GPx (U/gm Tissue) (GPx; 20 mg/kg): 77.65 ± 3.18 U/gm Tissue
- GPx (U/gm Tissue) (GPx; 40 mg/kg): 86.75 ± 6.01 U/gm Tissue
- IL-1β level in paw tissue (IL-1β): significant reduction
- SOD activity restored (SOD; [5]): 71.43%
- SOD (U/gm Tissue) (SOD; 20 mg/kg): 118.35 ± 1.06 U/gm Tissue
- SOD (U/gm Tissue) (SOD; 40 mg/kg): 135.05 ± 11.67 U/gm Tissue
- inhibition of IL-6 production [3]: strong inhibitory
